Read-outs that look alike come from different tables or passages of the source.
Legend:
[1] = cited from earlier work
advanced malignancies = details: cited from earlier work
Phospho-AKT (T308) = details: CLL cells from a subset of patients, post-dose; cited from earlier work
[2] = Plasma pharmacokinetics of SF1126 and hydrolysis products SF1101 and SF1174; assay type: in vivo, human; details: human, in vivo
[3] = background statement, ref not given; cited from earlier work

SMILES: COc1ccc(-c2ccc3ncc4c(c3c2)n(-c2ccc(N3CCNCC3)c(C(F)(F)F)c2)c(=O)n4C)cn1 [BGT226]
- AE profile ([1]; phase I, advanced solid tumours): nausea, vomiting and diarrhoea

SMILES: Nc1cc(C(F)(F)F)c(-c2cc(N3CCOCC3)nc(N3CCOCC3)n2)cn1 [BKM120]
- Patients on study for P8 months (advanced malignancies; phase I): 7
- PR (number of patients) (advanced malignancies; phase I, triple negative breast cancer (KRAS mutated) patient): 1
- AEs ([1]; phase I): grade 3 rash, abdominal pain and mood alterations
- Events observed at DLT ([1]; phase I): Two grade 4 hyperglycaemic events

SMILES: CC[C@H](Nc1ncnc2[nH]cnc12)c1nc2cccc(F)c2c(=O)n1-c1ccccc1 [CAL-101]
- Reduction of Phospho-AKT (T308) (Phospho-AKT (T308)): > 90%
- Patients with durable responses of >6 months (advanced malignancies; refractory non-Hodgkin's lymphoma and chronic lymphocytic leukaemia): 5

SMILES: CS(=O)(=O)N1CCN(Cc2cc3nc(-c4cccc5[nH]ncc45)nc(N4CCOCC4)c3s2)CC1 [GDC-0941]
- Patients with anti-tumour activity (advanced malignancies; phase I, relapsed/refractory solid tumours): 3 of 19

SMILES: C=CCN(/C=C1/C(=O)O[C@H](COC)[C@@]2(C)C1=C(O)C(=O)C1=C2[C@H](OC(C)=O)C[C@]2(C)C(=O)CC[C@@H]12)CC=C [PX-866]
- Grade 3 adverse event [1]: 1 reversible grade 3 transminitis

SMILES: O=c1cc(N2CCOCC2)oc2c(-c3ccccc3)cccc12 [SF1101, reference compound]
- Concentrations reached (Cmax versus dose) [2]: 20 to 30 µM
- half-life ([2]; iv): 1 to 2.4 h
- half-life [3]: short half-life

SMILES: COc1ccc(Cl)c(Nc2nc3ccccc3nc2NS(=O)(=O)c2cccc(NC(=O)C(C)(C)N)c2)c1 [XL147]
- Partial response (advanced malignancies): PR in a NSCLC patient with a confirmed PI3K3CA mutation
- Major DLT [1]: skin rash

SMILES: CCn1c(=O)c(-c2cc[nH]n2)cc2c(C)nc(N)nc21 [XL765]
- Patients on study for ≥16 weeks (advanced malignancies; Phase I, oral): 11
- Patients on study for ≥24 weeks (advanced malignancies; Phase I, oral): 7

Source: PMC3826796 (European journal of cancer (Oxford, England : 1990), 2012)
